Reference: patent US8354407B2 (Boehringer Ingelheim International GmbH, priority 2006, dated 2013)

Target: T1, full-length human PKCα enzyme (Homo sapiens, UniProt P17252)
T1 construct: full-length human PKCα enzyme; purchased Upstate Biotechnology
Experiment: Assessment of PKC-α Inhibitory Activity (MALDI-TOF kinase assay)
Type: biochemical
Conditions: full-length human PKCα 0.12 μg/ml; ATP 45 μM; neurogranin 28-43 peptide 22 μM; 30 minute incubation at 24° C.; MALDI-TOF MS readout
Method: Measurement of PKCα enzyme activity is performed using full-length human PKCα enzyme (Upstate Biotechnology) at a final concentration of 0.12 μg/ml in a kinase assay buffer (0.09 mg/ml bovine serum albumin (BSA), 210 μM ethylenediaminetetraacetic acid (EDTA), 360 μM CaCl2, 1 mM Tris-HCl, pH=7.5, 0.5 mM MgCl2, 0.015 mg/ml phosphatidylserine and 0.015 mg/ml diacylglycerol). The reaction is initiated by addition of adenosine triphosphate (ATP; final concentration 45 μM) and a peptide substrate consisting of amino acids 28-43 (Ala-Ala-Lys-Ile-Gln-Ala-Ser-Phe-Arg-Gly-His-Met-Ala-Arg-Lys-Lys) of neurogranin (Promega; final concentration 22 μM). After a 30 minute incubation at 24° C. the reaction is terminated by adding 5 μL of the reaction mixture into 50 μL of MALDI matrix solution (5 mg/ml α-cyano-4-hydroxycinnamic acid in 50% Acetonitrile/H2O, 0.1% TFA, 5 mM ammonium phosphate). Two microliters of the stopped reaction mixture is transferred onto a MALDI-TOF mass spectrometer target plate.
All spectra are collected on an Applied Biosystems 4700 Proteomics Analyzer MALDI-TOF MS equipped with a Nd:YAG laser (355 nm, 3 ns pulse width, 200 Hz repetition rate) in negative ion reflector mode. The system is operated with 4700 Explorer software, version 3.0. Automated acquisition parameters are adjusted to capture and average only those individual spectra within defined success criteria. Specifically, signal intensities for the substrate peptide are set to a minimum threshold of 3000 counts and a maximum intensity of 65,000 counts. This ensured that neither null spectra nor saturated spectra are averaged into the final readout. Between 1000 and 1500 laser shots are averaged for each sample. Data are collected in triplicate from 3 successive days to capture the maximum variability related to preparation of enzyme reaction, transfer of samples to MALDI target plates, data collection, and data extraction.
The isotope cluster areas for each peptide substrate and product peaks are extracted into a Microsoft Excel worksheet from the 10×10 array of spectral data simultaneously using the automated analysis function provided within the 4700 Explore software. The isotope cluster area is defined by the software algorithm based on the molecular weight and the general elemental composition of the peptides. The percent conversion (% C) of substrate to product is calculated as the cluster area of the product (P) divided by the sum of the cluster areas of the substrate (S) and the product multiplied by 100 as represented by the following equation: […]
For dose-dependent inhibition studies, the inhibition is plotted as a % Maximal Activity (% MA). Equation one is a measure of the ratio of product to substrate then solving for the % C. However, to measure inhibition of the enzyme activity, one must measure the degree to which that activity (% C) is curtailed. Thus the dose-dependant inhibition data is plotted as % MA where the maximal activity is the % C measured in control reactions with no inhibitor as represented by the following equation: […]

“N^2-(3-Nitro-biphenyl-3-yl)-N^4-(3-morpholin-4-yl-propyl)-pyrimidine-2,4-diamine” gave an IC50 of 182 nM.
